For this assay, the target named is T1, human Pin1 (recombinant from E. coli) (Homo sapiens, UniProt Q13526).
T1 construct: made in house; host or cells: E. coli
The assay can be described thus: protease-coupled PPIase assay, inhibition of hPin1. The assay is classed as biochemical. The conditions noted are these: protease-coupled PPlase assay; substrate Ac-Ala-Ala-(PO3H2)Ser-Pro-Arg-(4-)nitroanilide; trypsin; 2 nM enzyme; 35 mM HEPES pH 7.8; 10° C.; 5 min preincubation; read-out: hPin1-inhibition K1. The source says: As described in example 1, the peptidyl-prolyl-cis/trans-isomerase activity can be determined in the so-called protease coupled PPlase assay with the help of isomer-specific proteolysis and the suitable oligopeptide substrates and isomer-specific proteases. Other processes for the detection of PPlase activity are e.g. observing isomer-specific differences with respect to spectroscopic properties, their mobilities or the foldback catalysis of other proteins as well as isomer-specific chemical compounds when recording core resonance spectra.
If adding active components to one of the test systems listed above leads to a measurable decrease in the reaction speed catalysed by the respective PPlase, these active components are classed PPlase inhibitors, as is exemplarily shown in example 1. Assessment of the PPlase specificity of the inhibitor is carried out by testing different PPlases in the assay. By varying the concentration of the inhibitor and assessing the results measured with conventional processes, the corresponding inhibition constant (KI-value) can be determined. The concentration of the inhibitor which inhibits the PPlase-induced catalysis by 50% is called IC50-value.
Determining the inhibition constants of the selected compound according to the invention 1′,2′,3′H-spiro[indene-3′,3-(3H-5-methoxy-benzofurane-2-one)] vis-à-vis the PPlase hPinl by protease-coupled PPlase assay: • Buffer: 35 mM HEPES (pH 7.8), 1,200 μl • Substrate: Ac-Ala-Ala-(PO3H2)Ser-Pro-Arg-(4-)nitroanilide stock solution 10 mg/ml in 35 mM Hepes (pH 7.8), • Auxiliary protease: trypsin (Roth), stock solution 10 mg/ml in 35 mM Hepes (ph 7.8), concentration in the solution for measuring 0.34 mg/ml • Enzyme: human Pin1 (recombinant from E. coli), stock solution 0.55 μM, concentration in the solution for measuring: 2 nM • Effectors: effector stock solution 10 mM in DMSO, concentration in the solution for measuring between 1,000 and 0.01 μM • Temperature: 10° C.
In the incubation solution, the effectors were preincubated with the enzyme for 5 min, then 3.5 μl of the auxiliary protease trypsin were added and the reaction was started immediately afterwards by adding 3.5 μl substrate. The reaction was monitored at a wave length of 390 nm with the measuring instrument Hewlett Packard UVNIS spectrophotometer HP 8452A. The kinetic analysis of the data was carried out by “SigmaPlot” (Scientific Graphing System Vers. 2.0, Jandel Corp.).

T1 sequence (Q13526 whole entry): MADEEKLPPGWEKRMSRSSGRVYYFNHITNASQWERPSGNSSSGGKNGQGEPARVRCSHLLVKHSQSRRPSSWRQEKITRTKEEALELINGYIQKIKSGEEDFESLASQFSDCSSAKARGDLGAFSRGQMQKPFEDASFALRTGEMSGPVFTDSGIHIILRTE

As for `COc1ccc2c(c1)C1(CCc3ccccc31)C(=O)O2` (stereo not drawn) [1′,2′,3′H-spiro[indene-3′,3-(3H-5-methoxy-benzofurane-2-one)]], the Ki is 6 µM.

For the compound `COc1ccc(OC)c(C(=O)C2CCc3ccccc32)c1` (stereo not drawn) [1-(2,5-dimethoxyphenyl)-1′-indane-1′-1-methanone], the Ki is 50 µM. As to `O=C1Oc2ccccc2C12Cc1ccccc1C2` [1′,2′,3′H-sprio[indene-2′,3-(3H-benzofurane-2-one)]], the Ki is 7 µM. For the compound `COC(=O)C1(c2ccccc2O)CCc2ccccc21` (stereo not drawn), the Ki was determined as 27 µM. For `O=C1Oc2ccccc2C12CC=CC2` [1′,2′,3′H-spiro[cyclopentene-3′,3-(3H-benzofurane-2-one)]], the Ki was found to be 150 µM.

Consider `COc1ccc2c(c1)C1(CC(C)c3ccccc31)C(=O)O2` (stereo not drawn) [1′,2′,3′H-sprio[1′-methyl-indene-3′,3-(3H-5-methoxy-benzofurane-2-one)]], for which the Ki was determined as 20 µM.

The record behind these values is patent US20060089400A1, “Novel spiro ketone and carboxylic acid derivatives as specific inhibitors for (po3h2) ser/(po3h2)thr-pro-specific peptidyl-prolylcis/trans-isomerases” (The Vernalis Group of Companies, priority 2002, published 2006).
